Legend:
[1] = refractive index (Na D-line) (dimensionless); mn = molality of the nth substance listed, in mol/kg; conditions: 298.15 K, 101.33 kPa, Liquid, Standard Abbe refractometry
[2] = mn = molality of the nth substance listed, in mol/kg; conditions: 298.15 K, 101.33 kPa, Liquid; for speed of sound: Sing-around technique in a fixed-path interferometer; for mass density: Vibrating tube method
[3] = refractive index (Na D-line) (dimensionless); conditions: 298.15 K; 101.33 kPa; Liquid; Standard Abbe refractometry
[4] = 101.33 kPa, Liquid; for speed of sound: Sing-around technique in a fixed-path interferometer; for mass density: Vibrating tube method

C1CCCCC1 [cyclohexane] + c1ccsc1
m2 = 0
Conditions | mass density [kg/m3] | refractive index | speed of sound [m/s]
[1] | – | 1.4235 | –
[2] | 773.87 | – | 1253.7

C1CCCCC1 [cyclohexane]
Conditions | refractive index
[3] | 1.4235

[4], 298.15 K
Conditions | mass density [kg/m3] | speed of sound [m/s]
– | 773.87 | 1253.7

c1ccsc1 [thiophene]
Conditions | refractive index
[3] | 1.5252

[4]
Conditions | mass density [kg/m3] | speed of sound [m/s]
298.15 K | 1058.56 | 1259
303.15 K | – | 1258.7

c1ccsc1 [thiophene] + CCCCCC
Conditions | mass density, [2] [kg/m3] | refractive index, [1] | speed of sound, [2] [m/s]
m1 = 0.0303 | 655.82 | 1.3725 | 1077.3
m1 = 0.0354 | 655.927 | 1.3726 | 1077.3
m1 = 0.0403 | 656.03 | 1.3727 | 1077.3
m1 = 0.0453 | 656.133 | 1.3728 | 1077.3
m1 = 0.0504 | 656.239 | 1.3729 | 1077.4
m1 = 0.0554 | 656.34 | 1.373 | 1077.4
m1 = 0.0603 | 656.441 | 1.3731 | 1077.4
m1 = 0.0654 | 656.545 | 1.3732 | 1077.4
m1 = 0.0704 | 656.646 | 1.3733 | 1077.5
m1 = 0.0753 | 656.745 | 1.3734 | 1077.5
m1 = 0.0804 | 656.847 | 1.3735 | 1077.5
m1 = 0.0852 | 656.945 | 1.3736 | 1077.6
m1 = 0.0903 | 657.046 | 1.3737 | 1077.6
m1 = 0.0954 | 657.146 | 1.3738 | 1077.6
m1 = 0.1004 | 657.243 | 1.3739 | 1077.7
m1 = 0.1053 | 657.342 | 1.374 | 1077.7
m1 = 0.1104 | 657.441 | 1.3741 | 1077.8

CCCCCC [hexane]
Conditions | refractive index
[3] | 1.3722

[4], 298.15 K
Conditions | mass density [kg/m3] | speed of sound [m/s]
– | 655.175 | 1077.2

CCCCCCn1cc[n+](C)c1.[Br-] [3-hexyl-1-methyl-1H-imidazolium bromide]
Conditions | refractive index
[3] | 1.5308

[4], 298.15 K
Conditions | mass density [kg/m3] | speed of sound [m/s]
– | 1223.81 | 1587.5

CCCCCCn1cc[n+](C)c1.[Br-] [3-hexyl-1-methyl-1H-imidazolium bromide] + CCCCCC
m1 = 0.1
Conditions | mass density [kg/m3] | refractive index | speed of sound [m/s]
[1] | – | 1.3737 | –
[2] | 655.221 | – | 1077.4

c1ccsc1 [thiophene] + C1CCCCC1
Conditions | mass density, [2] [kg/m3] | refractive index, [1] | speed of sound, [2] [m/s]
m1 = 0.0404 | 774.512 | 1.424 | 1253.4
m1 = 0.0503 | 774.668 | 1.4241 | 1253.4
m1 = 0.0602 | 774.824 | 1.4242 | 1253.3
m1 = 0.0703 | 774.983 | 1.4243 | 1253.2
m1 = 0.0803 | 775.14 | 1.4244 | 1253.2
m1 = 0.0902 | 775.295 | 1.4245 | 1253.1
m1 = 0.1003 | 775.452 | 1.4246 | 1253
m1 = 0.1103 | 775.608 | 1.4247 | 1252.9
m1 = 0.1203 | 775.764 | 1.4248 | 1252.9
m1 = 0.1303 | 775.917 | 1.4249 | 1252.8
m1 = 0.1402 | 776.075 | 1.425 | 1252.7
m1 = 0.1503 | 776.227 | 1.4251 | 1252.6
m1 = 0.1603 | 776.38 | 1.4252 | 1252.6
m1 = 0.1702 | 776.53 | 1.4253 | 1252.5
m1 = 0.1802 | 776.684 | 1.4254 | 1252.4

CCCCCC [hexane] + c1ccsc1
m2 = 0
Conditions | mass density [kg/m3] | refractive index | speed of sound [m/s]
[1] | – | 1.3722 | –
[2] | 655.175 | – | 1077.2

CCCCCCn1cc[n+](C)c1.[Br-] [3-hexyl-1-methyl-1H-imidazolium bromide] + C1CCCCC1
m1 = 0.0999
Conditions | mass density [kg/m3] | refractive index | speed of sound [m/s]
[1] | – | 1.4236 | –
[2] | 773.932 | – | 1254.3

CCOS(=O)(=O)[O-].CCn1cc[n+](C)c1 [1-ethyl-3-methylimidazolium ethyl sulfate]
Conditions | refractive index
[3] | 1.4784

[4], 298.15 K
Conditions | mass density [kg/m3] | speed of sound [m/s]
– | 1237.72 | 1680.2

CCOS(=O)(=O)[O-].CCn1cc[n+](C)c1 [1-ethyl-3-methylimidazolium ethyl sulfate] + C1CCCCC1
m1 = 0.0999
Conditions | mass density [kg/m3] | refractive index | speed of sound [m/s]
[1] | – | 1.4237 | –
[2] | 773.884 | – | 1254.3

— the NIST ThermoML archive (doi:10.1016/j.jct.2015.03.004)
